System: Polistes jokahamae
Experiment: Control Test 1: aerosol sprayed on one test wasp in metal mesh cage, control time
Format: in vivo
Conditions: 2 g aerosol sprayed 1 second from approx. 30 cm, observed up to 180 seconds
Description: (§1) Ten grams of ethyl lactate, which is an active ingredient under the present invention, was put in an aerosol can as a liquid concentrate, and then a valve part was installed on the can, after which dimethyl ether was filled through the valve part as a propellant until the weight ratio of the liquid concentrate and the propellant became 1:2, and then a spray button was installed, to obtain 30 g of aerosol test sample in Example 1.
(§2) In Examples 2 to 28 and Comparative Examples 1 to 6, the liquid concentrates shown in Table 1 below were used to obtain 30 g of respective test samples in the same manner as in Example 1.
(§3) After spraying, the time it took for the test wasp to stop behaving normally and begin grooming abnormally and showing agitated behaviors (flapping of wings), and eventually drop to the bottom of the metal gauge, was measured as the control time (in seconds). In Table 1, “IPA” stands for isopropanol, while “%” refers to % by weight.
(§4) It should be noted that “turpentine oil” in Examples 2 and 3 is a plant-based essential oil containing 85% by weight or more of α-pinene which is an active ingredient under the present invention, while Comparative Example 5 contains 1% by weight of isopropyl myristate as a dissolving aid.

Row | Compound | Control time
1 | CC(C)[C@@H]1CC[C@@H](C)CC1=O [Example 4, Menthone] | <1 s
2 | CCOC(=O)C(C)O (stereo not drawn) [Example 1, Ethyl lactate] | <1 s
3 | C=C(C)C1CC=C(C)C(=O)C1 (stereo not drawn) [Example 23, Carvone] | <1 s
4 | COC(=O)Cc1ccccc1 [Example 28, Methyl phenyl acetate] | <1 s
5 | CCCCOC(=O)C(C)O (stereo not drawn) [Example 27, n-butyl lactate] | <1 s
6 | COC(=O)C(C)O (stereo not drawn) [Example 26, Methyl lactate] | <1 s
7 | CC1CCC(C(C)C)C(O)C1 (stereo not drawn) [Example 21, Menthol] | <1 s
8 | CC(C)O [compound 6, IPA, reference compound] | >180 s

System: Vespa mandarinia
Experiment: as above
Format: in vivo
Conditions: 2 g aerosol sprayed 1 second from approx. 30 cm, observed up to 180 seconds
Description: as §1, §2, §3, §4

Row | Compound | Control time
9 | C=CC(C)(O)CCC=C(C)C (stereo not drawn) [compound 3, Linalool] | >180 s

System: Vespa ducalis
Experiment: as above
Format: in vivo
Conditions: 2 g aerosol sprayed 1 second from approx. 30 cm, observed up to 180 seconds
Description: as §1, §2, §3, §4

Row | Compound | Control time
10 | CC(C)[C@@H]1CC[C@@H](C)CC1=O [Example 5, Menthone] | <1 s

System: Vespa simillima
Experiment: as above
Format: in vivo
Conditions: 2 g aerosol sprayed 1 second from approx. 30 cm, observed up to 180 seconds
Description: as §1, §2, §3, §4

Row | Compound | Control time
11 | CC(=O)OC1CC(C)CCC1C(C)C (stereo not drawn) [compound 2, Menthyl acetate] | >180 s

System: Polistes rothneyi
Experiment: as above
Format: in vivo
Conditions: 2 g aerosol sprayed 1 second from approx. 30 cm, observed up to 180 seconds
Description: as §1, §2, §3, §4

Row | Compound | Control time
12 | CC12CCC(CC1)C(C)(C)O2 [Example 20, Cineol] | <1 s
13 | α-turpentine [Example 9] | <1 s
14 | COC(=O)c1ccccc1 [Example 6, Methyl benzoate] | <1 s
15 | CC(C)[C@]12CC(=O)[C@H](C)[C@H]1C2 [Example 12, Thujone] | <1 s
16 | CC(C)=C1CC[C@@H](C)CC1=O [Example 10, Pulegone] | <1 s
17 | CCOC(=O)c1ccccc1 [Example 7, Ethyl benzoate] | <1 s
18 | CC(C)=CCCC(C)=CC=O [Example 11, Citral] | <1 s
19 | CCCCCC(O)CC (stereo not drawn) [Example 13, 3-octanol] | <1 s
20 | CC(C)=CCCC(C)=CCCC(C)=CCO [Example 8, Farnesol] | <1 s
21 | O=C(Cc1ccccc1)OCc1ccccc1 [Example 14, Benzyl phenyl acetate] | <1 s

From patent US20220151227A1, “CARNIVOROUS WASP CONTROL AGENT” (EARTH CORPORATION, priority 2019, published 2022)
